Assay results from PMC4584933, “Establishing the pig as a large animal model for vaccine development against human cancer” (Frontiers in Genetics, 2015).

Experiments:
SLA-2*05:02 = test: Peptide-MHC class I complex stability, scintillation proximity assay (SPA); parameters: species or system pig; conditions: biotinylated recombinant SLA heavy chain, 125I-β2m, excess unlabeled β2m, read every 40 min, number only if t1/2 ≥ 0.5 h, '-' = not stably binding
Experimental: (§1) The stability of the selected 198 peptides in complex with relevant SLA class I molecules and β2m was determined using a scintillation proximity assay (SPA), as previously described (Harndahl et al., [2011]). Briefly, biotinylated recombinant MHC class I heavy chains were attached to a streptavidin-coated scintillation microplate together with iodinated (^125I) β2m and candidate peptide resulting in a scintillation signal, which was consecutively measured every 40 min by a scintillation plate counter. The duration of this signal is directly correlated to the stability of the peptide-MHC class I-β2m complex under dissociating conditions and in the presence of excess unlabeled β2m (Harndahl et al., [2011]). Peptides with a half-life ≥ 0.5 h were selected as stable binders.

PBMCs = test: In vitro peptide stimulation of porcine PBMCs, IFN-γ release assay (ELISA); format: cell-based, pig; parameters: key to T cell response: “x” indicates that a response was found to this given peptide at least once; conditions: 5 μg/ml peptide; for T cell response: PBMCs of immunized pigs, 2 × 10^5/well, 67.5–70.0 h, IFN-γ ELISA, response = 2-fold increase vs day -2 and at least 25 pg/ml IFN-γ, found at least once, SLA restriction not included
SLA-1*07:02 = test: Peptide-MHC class I complex stability, scintillation proximity assay (SPA); parameters: species or system pig; conditions: biotinylated recombinant SLA heavy chain, 125I-β2m, excess unlabeled β2m, read every 40 min, number only if t1/2 ≥ 0.5 h, '-' = not stably binding
Experimental: as §1

SLA-3*04:01 = test: as above; parameters: species or system pig; conditions: biotinylated recombinant SLA heavy chain, 125I-β2m, excess unlabeled β2m, read every 40 min, number only if t1/2 ≥ 0.5 h, '-' = not stably binding
Experimental: as §1

SLA-2*04:01 = test: as above; parameters: species or system pig; conditions: biotinylated recombinant SLA heavy chain, 125I-β2m, excess unlabeled β2m, read every 40 min, number only if t1/2 ≥ 0.5 h, '-' = not stably binding
Experimental: as §1

Sequence	Binder (t1/2 ≥ 0.5 h): half-life of peptide-SLA-2*05:02 complex (SLA-2*05:02)	T cell response (PBMCs)	other results
ALQKALLDI [IDO5, porcine IDO-derived 9-11mer peptide]	- (t1/2 (hours) is listed for each of the stably binding peptides (t1/2 ≥ 0.5 h))	x	
DLRQDEHTR [RhoC6, porcine RhoC-derived 9-11mer peptide]	30 min	x	
DVILMCFSI [RhoC12, porcine RhoC-derived 9-11mer peptide]	354 min	x	
EIAAASAIKV [IDO15, porcine IDO-derived 9-11mer peptide]	156 min	x	maximum level of secreted IFN-γ (PBMCs; pig 2042 (CASAC), day 12, following 72 h of stimulation, ELISA): 280 pg/mL
ELAKMKQEPVR [RhoC16, porcine RhoC-derived 9-11mer peptide]	48 min	x	
ENIPEKWTPEV [RhoC18, porcine RhoC-derived 9-11mer peptide]	90 min	x	
EPVRSEEGRDM [RhoC20, porcine RhoC-derived 9-11mer peptide]			Binder (t1/2 ≥ 0.5 h): half-life of peptide-SLA-1*07:02 complex (SLA-1*07:02): 30 min
EVEKLATLSI [IDO20, porcine IDO-derived 9-11mer peptide]	42 min	x	
EVKHFCPNV [RhoC23, porcine RhoC-derived 9-11mer peptide]	120 min	x	
EVKHFCPNVPI [RhoC24, porcine RhoC-derived 9-11mer peptide]	336 min	x	
FLHSLESGPSV [IDO23, porcine IDO-derived 9-11mer peptide]	36 min	x	
FLQEMRTYM [IDO24, porcine IDO-derived 9-11mer peptide]			Binder (t1/2 ≥ 0.5 h): half-life of peptide-SLA-1*07:02 complex (SLA-1*07:02): - (t1/2 (hours) is listed for each of the stably binding peptides (t1/2 ≥ 0.5 h))
FPGGDCGKGFF [IDO30, porcine IDO-derived 9-11mer peptide]			Binder (t1/2 ≥ 0.5 h): half-life of peptide-SLA-1*07:02 complex (SLA-1*07:02): - (t1/2 (hours) is listed for each of the stably binding peptides (t1/2 ≥ 0.5 h))
HLVLGYITM [IDO40, porcine IDO-derived 9-11mer peptide]			Binder (t1/2 ≥ 0.5 h): half-life of peptide-SLA-1*07:02 complex (SLA-1*07:02): - (t1/2 (hours) is listed for each of the stably binding peptides (t1/2 ≥ 0.5 h))
HLVLGYITMAY [IDO41, porcine IDO-derived 9-11mer peptide]			Binder (t1/2 ≥ 0.5 h): half-life of peptide-SLA-1*07:02 complex (SLA-1*07:02): 30 min
HPYDAWIAI [IDO42, porcine IDO-derived 9-11mer peptide]			Binder (t1/2 ≥ 0.5 h): half-life of peptide-SLA-1*07:02 complex (SLA-1*07:02): - (t1/2 (hours) is listed for each of the stably binding peptides (t1/2 ≥ 0.5 h))
HPYDAWIAIAK [IDO43, porcine IDO-derived 9-11mer peptide]			Binder (t1/2 ≥ 0.5 h): half-life of peptide-SLA-1*07:02 complex (SLA-1*07:02): - (t1/2 (hours) is listed for each of the stably binding peptides (t1/2 ≥ 0.5 h))
KGFFLVSLL [IDO49, porcine IDO-derived 9-11mer peptide]	- (t1/2 (hours) is listed for each of the stably binding peptides (t1/2 ≥ 0.5 h))		Binder (t1/2 ≥ 0.5 h): half-life of peptide-SLA-3*04:01 complex (SLA-3*04:01): - (t1/2 (hours) is listed for each of the stably binding peptides (t1/2 ≥ 0.5 h))
KLGLPPILVY [IDO55, porcine IDO-derived 9-11mer peptide]			Binder (t1/2 ≥ 0.5 h): half-life of peptide-SLA-1*07:02 complex (SLA-1*07:02): - (t1/2 (hours) is listed for each of the stably binding peptides (t1/2 ≥ 0.5 h))
KLSEKLGLPPI [IDO56, porcine IDO-derived 9-11mer peptide]	- (t1/2 (hours) is listed for each of the stably binding peptides (t1/2 ≥ 0.5 h))		

Sequence	Binder (t1/2 ≥ 0.5 h): half-life of peptide-SLA-2*05:02 complex (SLA-2*05:02)	T cell response (PBMCs)	other results
KVIPTLFNAI [IDO61, porcine IDO-derived 9-11mer peptide]	- (t1/2 (hours) is listed for each of the stably binding peptides (t1/2 ≥ 0.5 h))		
KVLPRNIAI [IDO62, porcine IDO-derived 9-11mer peptide]	- (t1/2 (hours) is listed for each of the stably binding peptides (t1/2 ≥ 0.5 h))		Binder (t1/2 ≥ 0.5 h): half-life of peptide-SLA-3*04:01 complex (SLA-3*04:01): - (t1/2 (hours) is listed for each of the stably binding peptides (t1/2 ≥ 0.5 h))
LLVEIAAASAI [IDO68, porcine IDO-derived 9-11mer peptide]	30 min	x	
LPNPLEELPH [IDO69, porcine IDO-derived 9-11mer peptide]			Binder (t1/2 ≥ 0.5 h): half-life of peptide-SLA-1*07:02 complex (SLA-1*07:02): - (t1/2 (hours) is listed for each of the stably binding peptides (t1/2 ≥ 0.5 h))
LSEKLGLPPI [IDO72, porcine IDO-derived 9-11mer peptide]	- (t1/2 (hours) is listed for each of the stably binding peptides (t1/2 ≥ 0.5 h))		
LSYPDTDVI [RhoC35, porcine RhoC-derived 9-11mer peptide]	- (t1/2 (hours) is listed for each of the stably binding peptides (t1/2 ≥ 0.5 h))		Binder (t1/2 ≥ 0.5 h): half-life of peptide-SLA-2*04:01 complex (SLA-2*04:01): - (t1/2 (hours) is listed for each of the stably binding peptides (t1/2 ≥ 0.5 h))
LSYPDTDVIL [RhoC36, porcine RhoC-derived 9-11mer peptide]	36 min	x	
LSYPDTDVILM [RhoC37, porcine RhoC-derived 9-11mer peptide]	84 min		Binder (t1/2 ≥ 0.5 h): half-life of peptide-SLA-2*04:01 complex (SLA-2*04:01): - (t1/2 (hours) is listed for each of the stably binding peptides (t1/2 ≥ 0.5 h))
MAAIRKKLVI [RhoC40, porcine RhoC-derived 9-11mer peptide]	30 min		
MTYKNMDIL [IDO80, porcine IDO-derived 9-11mer peptide]	- (t1/2 (hours) is listed for each of the stably binding peptides (t1/2 ≥ 0.5 h))		Binder (t1/2 ≥ 0.5 h): half-life of peptide-SLA-2*04:01 complex (SLA-2*04:01): - (t1/2 (hours) is listed for each of the stably binding peptides (t1/2 ≥ 0.5 h)); Binder (t1/2 ≥ 0.5 h): half-life of peptide-SLA-3*04:01 complex (SLA-3*04:01): - (t1/2 (hours) is listed for each of the stably binding peptides (t1/2 ≥ 0.5 h))
MVSLRNYHLQI [IDO84, porcine IDO-derived 9-11mer peptide]	- (t1/2 (hours) is listed for each of the stably binding peptides (t1/2 ≥ 0.5 h))		
NSWKIFEEYHI [IDO91, porcine IDO-derived 9-11mer peptide]	126 min	x	
SAIKVIPTLF [IDO114, porcine IDO-derived 9-11mer peptide]	- (t1/2 (hours) is listed for each of the stably binding peptides (t1/2 ≥ 0.5 h))	x	Binder (t1/2 ≥ 0.5 h): half-life of peptide-SLA-2*04:01 complex (SLA-2*04:01): 30 min
SLRNYHLQI [IDO118, porcine IDO-derived 9-11mer peptide]	- (t1/2 (hours) is listed for each of the stably binding peptides (t1/2 ≥ 0.5 h))		Binder (t1/2 ≥ 0.5 h): half-life of peptide-SLA-3*04:01 complex (SLA-3*04:01): - (t1/2 (hours) is listed for each of the stably binding peptides (t1/2 ≥ 0.5 h))
TVFENYIADI [RhoC51, porcine RhoC-derived 9-11mer peptide]	54 min	x	
VLSKGDALL [IDO127, porcine IDO-derived 9-11mer peptide]	- (t1/2 (hours) is listed for each of the stably binding peptides (t1/2 ≥ 0.5 h))		
VPTVFENYI [RhoC54, porcine RhoC-derived 9-11mer peptide]	108 min		
VSLRNYHLQI [IDO130, porcine IDO-derived 9-11mer peptide]	- (t1/2 (hours) is listed for each of the stably binding peptides (t1/2 ≥ 0.5 h))		Binder (t1/2 ≥ 0.5 h): half-life of peptide-SLA-3*04:01 complex (SLA-3*04:01): - (t1/2 (hours) is listed for each of the stably binding peptides (t1/2 ≥ 0.5 h))
WKIFEEYHI [IDO131, porcine IDO-derived 9-11mer peptide]	138 min	x	
YVPTVFENYI [RhoC61, porcine RhoC-derived 9-11mer peptide]	42 min		
